In patent publication US20250186405A1, “Compound For Use In Treating Narcolepsy” (Alkermes, Inc., priority 2023, published 2025):
Values joined by “and” are separate entries in the source; they are usually repeats but may differ in a detail not shown here. Equal values may be shown once.

Test system: subjects with narcolepsy type-1 (NT1)
Experiment: Part 4 POC NT1: treatment-emergent adverse events, single doses, crossover
Assay type: in vivo, human
Experimental: Subjects were randomized to 1 of 4 sequences.
Each subject received three doses of Compound A, including 1, 3, and 8 mg, and a single dose of placebo. […] All subjects underwent the washout period and completed all 4-way randomized crossover periods.
With one exception, each subject received three doses of Compound A, including 1, 3, and 8 mg, and a single dose of placebo. One patient withdrew from the study after the first dose due to venous access complications. […] With the exception of one patient as noted above, all subjects underwent the washout period and completed all 4-way randomized crossover periods.

SMILES: CS(=O)(=O)N[C@H]1CCCN2C(=O)COc3ccccc3C3CCC(CC3)OCC12 (stereo partly drawn) [Compound A, N-[(4S,4aR,7α,10α)-1,2,3,4,4a,5,7,8,9,10,16,17-dodecahydro-17-oxo-7,10-ethanopyrido[1,2-d][1,7,4]benzodioxaazacyclotridecin-4-yl]methanesulfonamide]
- TEAE by Highest Relationship: Related (3 mg (N = 9)): 3 (33.3) n (%)
- TEAE by Highest Severity: Mild (3 mg (N = 9)): 5 (55.6) n (%)
- TEAE by Highest Severity: Moderate (3 mg (N = 9)): 0 n (%)
- TEAE by Highest Severity: Severe (3 mg (N = 9)): 0 n (%)
- AE Leading to Study Drug Discontinuation (8 mg (N = 4)): 0 n (%)
- Any SAEs (8 mg (N = 4)): 0 n (%)
- Any TEAE (8 mg (N = 4)): 4 (100) n (%) and 4 n (%)
- Death (8 mg (N = 4)): 0 n (%)
- TEAE Anaemia (8 mg (N = 4)): 0 n (%)
- TEAE Application site dermatitis (8 mg (N = 4)): 1 n (%)
- TEAE Blood pressure increased (8 mg (N = 4)): 1 n (%)
- TEAE Bruxism (8 mg (N = 4)): 1 n (%)
- TEAE Dermatitis contact (8 mg (N = 4)): 0 n (%)
- TEAE Dizziness (8 mg (N = 4)): 1 n (%)
- TEAE Hyperhidrosis (8 mg (N = 4)): 1 n (%)
- TEAE Hyperlipidaemia (8 mg (N = 4)): 0 n (%)
- TEAE Insomnia (8 mg (N = 4)): 3 n (%)
- TEAE Pollakiuria (8 mg (N = 4)): 2 n (%)
- TEAE Procedural anxiety (8 mg (N = 4)): 0 n (%)
- TEAE Salivary hypersecretion (8 mg (N = 4)): 2 n (%)
- TEAE Vascular access site injury (8 mg (N = 4)): 0 n (%)
- TEAE Vessel puncture site bruise (8 mg (N = 4)): 0 n (%)
- TEAE by Highest Relationship: Not Related (8 mg (N = 4)): 0 n (%)
- TEAE by Highest Relationship: Related (8 mg (N = 4)): 4 (100) n (%)
- TEAE by Highest Severity: Mild (8 mg (N = 4)): 4 (100) n (%)
- TEAE by Highest Severity: Moderate (8 mg (N = 4)): 0 n (%)
- TEAE by Highest Severity: Severe (8 mg (N = 4)): 0 n (%)
- AE Leading to Study Drug Discontinuation (8 mg (N = 10)): 0 n (%)
- Any SAEs (8 mg (N = 10)): 0 n (%)
- Any TEAE (8 mg (N = 10)): 9 (90.0) n (%)
- Death (8 mg (N = 10)): 0 n (%)
- TEAE Anaemia (8 mg (N = 10)): 0 n (%)
- TEAE Application site dermatitis (8 mg (N = 10)): 1 (10.0) n (%)
- TEAE Back pain (8 mg (N = 10)): 1 (10.0) n (%)
- TEAE Blood pressure increased (8 mg (N = 10)): 1 (10.0) n (%)
- TEAE Bruxism (8 mg (N = 10)): 1 (10.0) n (%)
- TEAE Decreased appetite (8 mg (N = 10)): 1 (10.0) n (%)
- TEAE Dehydration (8 mg (N = 10)): 0 n (%)
- TEAE Dermatitis contact (8 mg (N = 10)): 0 n (%)
- TEAE Dizziness (8 mg (N = 10)): 2 (20.0) n (%)
- TEAE Haemoglobin decreased (8 mg (N = 10)): 1 (10.0) n (%)
- TEAE Headache (8 mg (N = 10)): 0 n (%)
- TEAE Hyperhidrosis (8 mg (N = 10)): 1 (10.0) n (%)
- TEAE Hyperlipdaemia (8 mg (N = 10)): 0 n (%)
- TEAE Insomnia (8 mg (N = 10)): 3 (30.0) n (%)
- TEAE Middle Insomnia (8 mg (N = 10)): 3 (30.0) n (%)
- TEAE Nausea (8 mg (N = 10)): 2 (20.0) n (%)
- TEAE Pollakiuria (8 mg (N = 10)): 4 (40.0) n (%)
- TEAE Salivary hypersecretion (8 mg (N = 10)): 3 (30.0) n (%)
- TEAE Sinus tachycardia (8 mg (N = 10)): 1 (10.0) n (%)
- TEAE Vascular access site injury (8 mg (N = 10)): 0 n (%)
- TEAE Vessel puncture site bruise (8 mg (N = 10)): 2 (20.0) n (%)
- TEAE Vessel puncture site pain (8 mg (N = 10)): 2 (20.0) n (%)
- TEAE by Highest Relationship: Not Related (8 mg (N = 10)): 0 n (%)
- TEAE by Highest Relationship: Related (8 mg (N = 10)): 9 (90.0) n (%)
- TEAE by Highest Severity: Mild (8 mg (N = 10)): 8 (80.0) n (%)
- TEAE by Highest Severity: Moderate (8 mg (N = 10)): 1 (10.0) n (%)
- TEAE by Highest Severity: Severe (8 mg (N = 10)): 0 n (%)
- Tolerability (NT1, 1, 3 and 8 mg): well tolerated
- AE Leading to Study Drug Discontinuation (Total (N = 4)): 0 n (%)
- Any SAEs (Total (N = 4)): 0 n (%)
- Any TEAE (Total (N = 4)): 4 (100) n (%) and 4 n (%)
- Death (Total (N = 4)): 0 n (%)
- TEAE Anaemia (Total (N = 4)): 0 n (%)
- TEAE Application site dermatitis (Total (N = 4)): 2 n (%)
- TEAE Blood pressure increased (Total (N = 4)): 1 n (%)
- TEAE Bruxism (Total (N = 4)): 1 n (%)
- TEAE Dermatitis contact (Total (N = 4)): 1 n (%)
- TEAE Dizziness (Total (N = 4)): 1 n (%)
- TEAE Hyperhidrosis (Total (N = 4)): 1 n (%)
- TEAE Hyperlipidaemia (Total (N = 4)): 0 n (%)
- TEAE Insomnia (Total (N = 4)): 3 n (%)
- TEAE Pollakiuria (Total (N = 4)): 2 n (%)
- TEAE Procedural anxiety (Total (N = 4)): 1 n (%)
- TEAE Salivary hypersecretion (Total (N = 4)): 2 n (%)
- TEAE Vascular access site injury (Total (N = 4)): 1 n (%)
- TEAE Vessel puncture site bruise (Total (N = 4)): 1 n (%)
- TEAE by Highest Relationship: Not Related (Total (N = 4)): 0 n (%)
- TEAE by Highest Relationship: Related (Total (N = 4)): 4 (100) n (%)
- TEAE by Highest Severity: Mild (Total (N = 4)): 4 (100) n (%)
- TEAE by Highest Severity: Moderate (Total (N = 4)): 0 n (%)
- TEAE by Highest Severity: Severe (Total (N = 4)): 0 n (%)
- Any TEAE (Total (N = 10)): 9 (90.0) n (%)
- TEAE Anaemia (Total (N = 10)): 0 n (%)
- TEAE Application site dermatitis (Total (N = 10)): 2 (20.0) n (%)
- TEAE Back pain (Total (N = 10)): 1 (10.0) n (%)
- TEAE Blood pressure increased (Total (N = 10)): 1 (10.0) n (%)
- TEAE Bruxism (Total (N = 10)): 1 (10.0) n (%)
- TEAE Decreased appetite (Total (N = 10)): 2 (20.0) n (%)
- TEAE Dehydration (Total (N = 10)): 1 (10.0) n (%)
- TEAE Dermatitis contact (Total (N = 10)): 2 (20.0) n (%)
- TEAE Dizziness (Total (N = 10)): 2 (20.0) n (%)
- TEAE Haemoglobin decreased (Total (N = 10)): 1 (10.0) n (%)
- TEAE Headache (Total (N = 10)): 0 n (%)
- TEAE Hyperhidrosis (Total (N = 10)): 1 (10.0) n (%)
- TEAE Hyperlipdaemia (Total (N = 10)): 0 n (%)
- TEAE Insomnia (Total (N = 10)): 3 (30.0) n (%)
- TEAE Middle Insomnia (Total (N = 10)): 3 (30.0) n (%)
- TEAE Nausea (Total (N = 10)): 2 (20.0) n (%)
- TEAE Pollakiuria (Total (N = 10)): 4 (40.0) n (%)
- TEAE Salivary hypersecretion (Total (N = 10)): 3 (30.0) n (%)
- TEAE Sinus tachycardia (Total (N = 10)): 1 (10.0) n (%)
- TEAE Vascular access site injury (Total (N = 10)): 1 (10.0) n (%)
- TEAE Vessel puncture site bruise (Total (N = 10)): 3 (30.0) n (%)
- TEAE Vessel puncture site pain (Total (N = 10)): 2 (20.0) n (%)
